Assay results taken from the NIST ThermoML archive (doi:10.1016/j.jct.2013.04.003).
± gives the expanded uncertainty stated by the source.

Conditions: 313.15 K; Liquid; Closed cell (Static) method

Row | Compound | vapor or sublimation pressure [kPa]
1 | CC(C)CC(C)(C)C [2,2,4-trimethylpentane] | 12.95 ± 0.031
2 | CCCCO [butan-1-ol] | 2.483 ± 0.015
3 | C=CCCCC [hex-1-ene] | 44.98 ± 0.2
